What was measured:
Format in all cases: cell-based
human TASK-3 [1] = biological target: T1, human TASK-3 (Homo sapiens (Human), UniProt Q9NPC2); assay: Two-electrode voltage clamp analysis of human TASK-3 channel in Xenopus laevis oocytes; settings: human TASK-3 expressed in Xenopus laevis oocytes, room temperature
Experimental: (§1) B-1. In Vitro Electrophysiological Analysis of the Human TASK-1 and TASK-3 Channels Via Two-Electrode Voltage Clamp Technique in Xenopus laevis Oocytes
(§2) Xenopus laevis oocytes were selected as described elsewhere by way of illustration [Decher et al., FEBS Lett. 492, 84-89 (2001)]. Subsequently, the oocytes were injected with 0.5-5 ng of a cRNA solution coding for TASK-1 or TASK-3. For the electrophysiological analysis of the channel proteins expressed in the oocytes, the two-electrode voltage clamp technique [Stühmer, Methods Enzymol. 207, 319-339 (1992)] was used. The measurements were conducted as described [Decher et al., FEBS Lett. 492, 84-89 (2001)] at room temperature (21-22° C.) using a Turbo TEC 10CD amplifier (NPI), recorded at 2 kHz and filtered with 0.4 kHz. Substance administration was performed using a gravitation-driven perfusion system. Here, the oocyte is located in a measuring chamber and exposed to the solution stream of 10 ml/min. The level in the measuring chamber is monitored and regulated by sucking off the solution using a peristaltic pump.

human TASK-1 [2] = biological target: T2, human TASK-1 (Homo sapiens (Human), UniProt O14649); assay: Inhibition of recombinant TASK-1 in stably transfected CHO cells (voltage-sensitive dye, KCl depolarization); settings: depolarization by 40 mM potassium chloride
T2 sequence (O14649 whole entry): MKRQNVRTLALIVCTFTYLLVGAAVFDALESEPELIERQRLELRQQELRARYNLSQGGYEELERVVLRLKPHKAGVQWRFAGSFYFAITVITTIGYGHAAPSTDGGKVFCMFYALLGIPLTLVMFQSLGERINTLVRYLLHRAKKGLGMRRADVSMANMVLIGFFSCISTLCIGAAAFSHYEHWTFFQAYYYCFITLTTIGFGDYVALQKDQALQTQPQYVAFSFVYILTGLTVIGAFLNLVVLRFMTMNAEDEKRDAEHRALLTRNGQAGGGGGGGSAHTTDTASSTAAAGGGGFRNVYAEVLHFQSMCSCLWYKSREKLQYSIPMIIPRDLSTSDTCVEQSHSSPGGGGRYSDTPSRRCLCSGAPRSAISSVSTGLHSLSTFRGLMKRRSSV
In short: (§3)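 Stably transfected CHO cells loaded with a voltage-sensitive membrane-potential dye were depolarized with 40 mM KCl in the presence of compound. IC50 is the concentration blocking half of the KCl-induced depolarization.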

human TASK-3 [3] = biological target: T1, human TASK-3; assay: Inhibition of recombinant TASK-3 in stably transfected CHO cells (voltage-sensitive dye, KCl depolarization); settings: depolarization by 40 mM potassium chloride
In short: as §3

human TASK-1 [4] = biological target: T2, human TASK-1; assay: Two-electrode voltage clamp analysis of human TASK-1 channel in Xenopus laevis oocytes; settings: human TASK-1 expressed in Xenopus laevis oocytes, room temperature
Experimental: as §1, §2

T1 sequence (Q9NPC2 whole entry): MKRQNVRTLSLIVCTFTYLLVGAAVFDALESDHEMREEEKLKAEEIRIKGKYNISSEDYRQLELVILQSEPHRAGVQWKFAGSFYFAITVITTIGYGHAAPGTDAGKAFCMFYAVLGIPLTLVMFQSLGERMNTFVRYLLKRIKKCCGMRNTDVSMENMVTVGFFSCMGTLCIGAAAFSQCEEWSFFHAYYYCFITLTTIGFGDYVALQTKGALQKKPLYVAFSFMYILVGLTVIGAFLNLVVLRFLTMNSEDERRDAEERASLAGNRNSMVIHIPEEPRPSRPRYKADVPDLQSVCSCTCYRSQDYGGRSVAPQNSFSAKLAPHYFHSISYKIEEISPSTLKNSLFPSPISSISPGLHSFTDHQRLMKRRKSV

Row | SMILES | IC50 (human TASK-3 [1]) [nM] | IC50 (human TASK-1 [2]) [nM] | IC50 (human TASK-3 [3]) [nM] | IC50 (human TASK-1 [4]) [nM]
1 | COc1ccc(Cl)c(C(=O)N2CC3CCC2CN3Cc2c(-c3ccc(C(C)C)cc3)nc3ncccn23)n1 (single isomer, unassigned) [Example 26, (3-Chloro-6-methoxypyridin-2-yl)(5-{[2-(4-isopropylphenyl)imidazo[1,2-a]pyrimidin-3-yl]methyl}-2,5-diazabicyclo[2.2.2]oct-2-yl)methanone] | 140 ± 34.6 | 1400 | 16 | 31.2 ± 5.8
2 | CC(C)c1ccc(-c2nc3ncccn3c2CN2CC3CCC2CN3C(=O)c2ncoc2C2CC2)cc1 (single isomer, unassigned) [Example 27, (5-Cyclopropyl-1,3-oxazol-4-yl)(5-{[2-(4-isopropylphenyl)imidazo[1,2-a]pyrimidin-3-yl]methyl}-2,5-diazabicyclo[2.2.2]oct-2-yl)methanone] | 367 ± 67.6 | 1200 | 10 | 17.9 ± 2.2
3 | CC(C)c1ccc(-c2nc3ncccn3c2CN2CC3COCC(C2)N3C(=O)c2cccc(OC(F)F)n2)cc1 [Example 19, [6-(Difluoromethoxy)pyridin-2-yl](7-{[2-(4-isopropylphenyl)imidazo[1,2-a]pyrimidin-3-yl]methyl}-3-oxa-7,9-diazabicyclo[3.3.1]non-9-yl)methanone] | 774 ± 67.1 | 22000 | 59 | 239 ± 2.7
4 | COc1ccc(F)c(C(=O)N2CC3CCC2CN3Cc2c(-c3ccc(Cl)cc3)nc3ncccn23)n1 (stereo not drawn) [Example 41] | 71.8 ± 15.5 | 1500 | 100 | 44.4 ± 4.4
5 | O=C(c1ccccc1F)N1C2CCC1CN(Cc1c(-c3ccc(C4CC4)cc3)nc3ncccn13)C2 [Example 133, (3-{[2-(4-cyclopropylphenyl)imidazo[1,2-a]pyrimidin-3-yl]methyl}-3,8-diazabicyclo[3.2.1]octan-8-yl)(2-fluorophenyl)methanone] | – | 1600 | 180 | –
6 | O=C(C1CCCC1)N1C2CCC1CN(Cc1c(-c3ccc(C4CC4)cc3)nc3ncccn13)C2 [Example 134, cyclopentyl(3-{[2-(4-cyclopropylphenyl)imidazo[1,2-a]pyrimidin-3-yl]methyl}-3,8-diazabicyclo[3.2.1]octan-8-yl)methanone] | – | 770 | 97 | –
7 | COc1ccc(F)c(C(=O)N2C3CCC2CN(Cc2c(-c4ccc(C5CC5)cc4)nc4ncccn24)C3)n1 [Example 135, (3-{[2-(4-cyclopropylphenyl)imidazo[1,2a]pyrimidin-3-yl]methyl}-3,8-diazabicyclo[3.2.1]octan-8-yl)(3-fluoro-6methoxypyridin-2-yl)methanone] | – | 420 | 34 | –
8 | COc1ccc(Cl)c(C(=O)N2C3CCC2CN(Cc2c(-c4ccc(C5CC5)cc4)nc4ncccn24)C3)n1 [Example 136, (3-chloro-6-methoxypyridin-2-yl)(3-{[2-(4-cyclopropylphenyl)imidazo[1,2-a]pyrimidin-3-yl]methyl}-3,8-diazabicyclo[3.2.1]octan-8-yl)methanone] | – | 320 | 41 | –
9 | COc1cccc(C(=O)N2C3CCC2CN(Cc2c(-c4ccc(C5CC5)cc4)nc4ncccn24)C3)n1 [Example 137, (3-{[2-(4-cyclopropylphenyl)imidazo[1,2-a]pyrimidin-3-yl]methyl}-3,8-diazabicyclo[3.2.1]octan-8-yl)(6-methoxypyridin-2-yl)methanone] | – | 1100 | 180 | –
10 | O=C(c1cccc(OC(F)F)n1)N1C2CCC1CN(Cc1c(-c3ccc(C4CC4)cc3)nc3ncccn13)C2 [Example 138, (3-{[2-(4-cyclopropylphenyl)imidazo[1,2-a]pyrimidin-3-yl]methyl}-3,8-diazabicyclo[3.2.1]octan-8-yl)[6-(difluoromethoxy)pyridin-2-yl]methanone] | – | 3200 | 290 | –
11 | O=C(c1ncoc1C1CC1)N1C2CCC1CN(Cc1c(-c3ccc(C4CC4)cc3)nc3ncccn13)C2 [Example 139, (5-cyclopropyl-1,3-oxazol-4-yl)(3-{[2-(4-cyclopropylphenyl)imidazo[1,2-a]pyrimidin-3-yl]methyl}-3,8-diazabicyclo[3.2.1]octan-8-yl)methanone] | – | 4500 | 470 | –

Source: patent US11098063B2, “Diazabicyclic substituted imidazopyrimidines and their use for the treatment of breathing disorders” (Bayer Aktiengesellschaft, priority 2017, dated 2021)
